Values of other authors as cited in patent publication US20180028452A1, “ANTIEMETIC EXTENDED RELEASE SOLID DOSAGE FORMS” (RedHill Biopharma Ltd., priority 2013, published 2018).
Structures can show the parent of a compound that is named as a salt.

Columns and labels:
[1] = water and normal saline
[2] = scale of Pliska et al., J. Chromatog. 216, 79, 1981

| Compound | solubility [1] | hydropathy value (relative hydrophobic character) [2] |
| --- | --- | --- |
| Cc1nccn1CC1CCc2c(c3ccccc3n2C)C1=O (racemic) [Ondansetron HCl dihydrate, Ondansetron hydrochloride] | soluble in water and normal saline | – |
| N[C@@H](CC(=O)O)C(=O)O [aspartic acid] | – | −2.15 |
| NCC(=O)O [glycine] | – | 0 |
| CC[C@H](C)[C@H](N)C(=O)O [iso-leucine] | – | 1.83 |
